Non-standard residues stand in square brackets, D forms with d. pGlu = O=C1CC[C@@H](C(=O)O)N1
Experiments:
Assay type in all cases: cell-based, human
[1] = test system: whole blood from subjects with T1D and Celiac disease; assay: Whole blood cytokine release assay, IFN-γ (MAGPIX), Example 1; details: for Whole blood IFNg release / Whole blood IFNg release, fold-change over medium only: 10 uM
[2] = test system: whole blood from subjects with T1D and Celiac disease; assay: Whole blood cytokine release assay, IL-2 (MAGPIX), Example 1; details: for Whole blood IL-2 release / Whole blood IL-2 release, fold-change over medium only: 10 uM
[3] = test system: whole blood from subjects with T1D and Celiac disease; assay: Whole blood cytokine release assay, IP-10 (MAGPIX), Example 1; details: for Whole blood IP-10 release / Whole blood IP-10 release, fold-change over medium only: 10 uM
[4] = subject 1, day 0 since oral challenge
[5] = subject 1, day 6 since oral challenge
[6] = subject 2, day 0 since oral challenge
[7] = subject 2, day 6 since oral challenge
[8] = subject 6, day 0 since oral challenge
[9] = subject 6, day 6 since oral challenge
[10] = subject 7, day 0 since oral challenge
[11] = subject 7, day 6 since oral challenge
[12] = individual 17mer 20 μg/mL, four subjects, blood 6 days after commencing oral gluten challenge
[13] = Subject 1, individual 17mer 20 μg/mL, blood 6 days after commencing oral gluten challenge
[14] = Subject 2, individual 17mer 20 μg/mL, blood 6 days after commencing oral gluten challenge
[15] = Subject 6, individual 17mer 20 μg/mL, blood 6 days after commencing oral gluten challenge
[16] = Subject 7, individual 17mer 20 μg/mL, blood 6 days after commencing oral gluten challenge

## (pE)LQPFPQPELPYPQPQ-NH2 ([pGlu]LQPFPQPELPYPQPQ-NH2; SMILES CC(C)C[C@H](NC(=O)[C@@H]1CCC(=O)N1)C(=O)N[C@@H](CCC(N)=O)C(=O)N1CCC[C@H]1C(=O)N[C@@H](Cc1ccccc1)C(=O)N1CCC[C@H]1C(=O)N[C@@H](CCC(N)=O)C(=O)N1CCC[C@H]1C(=O)N[C@@H](CCC(=O)O)C(=O)N[C@@H](CC(C)C)C(=O)N1CCC[C@H]1C(=O)N[C@@H](Cc1ccc(O)cc1)C(=O)N1CCC[C@H]1C(=O)N[C@@H](CCC(N)=O)C(=O)N1CCC[C@H]1C(=O)N[C@@H](CCC(N)=O)C(N)=O) [SEQ ID NO: 44, gluten peptide, reference compound]
[1]; [4]
  Whole blood IFNg release: 39 pg/mL
  Whole blood IFNg release, fold-change over medium only: 0.71
[1]; [5]
  Whole blood IFNg release: 55 pg/mL
  Whole blood IFNg release, fold-change over medium only: 0.84
[1]; [6]
  Whole blood IFNg release: 4.1 pg/mL
  Whole blood IFNg release, fold-change over medium only: 1.06
[1]; [7]
  Whole blood IFNg release: 13.9 pg/mL
  Whole blood IFNg release, fold-change over medium only: 2.85
[1]; [8]
  Whole blood IFNg release: 102 pg/mL
  Whole blood IFNg release, fold-change over medium only: 1.05
[1]; [9]
  Whole blood IFNg release: 200 pg/mL
  Whole blood IFNg release, fold-change over medium only: 2.03
[1]; [10]
  Whole blood IFNg release: 407 pg/mL
  Whole blood IFNg release, fold-change over medium only: 1.71
[1]; [11]
  Whole blood IFNg release: 194 pg/mL
  Whole blood IFNg release, fold-change over medium only: 1.29
[2]; [4]
  Whole blood IL-2 release: 3.2 pg/mL
  Whole blood IL-2 release, fold-change over medium only: 1.00
[2]; [5]
  Whole blood IL-2 release: 3.2 pg/mL
  Whole blood IL-2 release, fold-change over medium only: 1.00
[2]; [6]
  Whole blood IL-2 release: 3.2 pg/mL
  Whole blood IL-2 release, fold-change over medium only: 1.00
[2]; [7]
  Whole blood IL-2 release: 12.2 pg/mL
  Whole blood IL-2 release, fold-change over medium only: 3.82
[2]; [8]
  Whole blood IL-2 release: 12.5 pg/mL
  Whole blood IL-2 release, fold-change over medium only: 2.52
[2]; [9]
  Whole blood IL-2 release: 88.5 pg/mL
  Whole blood IL-2 release, fold-change over medium only: 20.88
[2]; [10]
  Whole blood IL-2 release: 144.4 pg/mL
  Whole blood IL-2 release, fold-change over medium only: 2.30
[2]; [11]
  Whole blood IL-2 release: 71.2 pg/mL
  Whole blood IL-2 release, fold-change over medium only: 1.69
[3]; [4]
  Whole blood IP-10 release: 201 pg/mL
  Whole blood IP-10 release, fold-change over medium only: 0.76
[3]; [5]
  Whole blood IP-10 release: 384 pg/mL
  Whole blood IP-10 release, fold-change over medium only: 1.15
[3]; [6]
  Whole blood IP-10 release: 320 pg/mL
  Whole blood IP-10 release, fold-change over medium only: 1.20
[3]; [7]
  Whole blood IP-10 release: 1844 pg/mL
  Whole blood IP-10 release, fold-change over medium only: 5.90
[3]; [8]
  Whole blood IP-10 release: 1616 pg/mL
  Whole blood IP-10 release, fold-change over medium only: 5.83
[3]; [9]
  Whole blood IP-10 release: 10000 pg/mL
  Whole blood IP-10 release, fold-change over medium only: 49.76
[3]; [10]
  Whole blood IP-10 release: 977 pg/mL
  Whole blood IP-10 release, fold-change over medium only: 1.32
[3]; [11]
  Whole blood IP-10 release: 3293 pg/mL
  Whole blood IP-10 release, fold-change over medium only: 3.69

## NVGADIKKTMEGPVEGR [SEQ ID NO: 69]
[1]; [12]
  subjects with elevated whole blood IFN-γ release: Only Subject 7 responded
[2]; [12]
  subjects with elevated whole blood IL-2 release: Only Subject 7 responded
[3]; [12]
  subjects with elevated whole blood IP-10 release (2-fold greater than medium alone): Only Subject 7 responded

## 11 (FNQLSTGLDMVGLAADW) [compound 11]
[1]; [13]
  IFN-g fold-change (GAD65 peptides): 0.94 fold
[1]; [14]
  IFN-g fold-change (GAD65 peptides): 1.15 fold
[1]; [15]
  IFN-g fold-change (GAD65 peptides): 0.81 fold
[1]; [16]
  IFN-g fold-change (GAD65 peptides): 1.05 fold
[2]; [13]
  IL-2 fold-change (GAD65 peptides): 1.00 fold
[2]; [14]
  IL-2 fold-change (GAD65 peptides): 1.00 fold
[2]; [15]
  IL-2 fold-change (GAD65 peptides): 1.28 fold
[2]; [16]
  IL-2 fold-change (GAD65 peptides): 1.37 fold
[3]; [13]
  IP-10 fold-change (GAD65 peptides): 23.55 fold
[3]; [14]
  IP-10 fold-change (GAD65 peptides): 5.90 fold
[3]; [15]
  IP-10 fold-change (GAD65 peptides): 57.27 fold
[3]; [16]
  IP-10 fold-change (GAD65 peptides): 15.66 fold

From US10473647B1, “Peptides for use in treatment and diagnosis of type 1 diabetes” (ImmusanT, Inc., priority 2014, dated 2019)
